Laboratory results reported in PMC8379256, “A xanthene derivative, DS20060511, attenuates glucose intolerance by inducing skeletal muscle-specific GLUT4 translocation in mice” (Communications Biology, 2021).
Several values for one entry are separate records, joined by “and”; a condition that tells them apart may be missing. Identical values can stand only once.

System: C57BL/6 mice
Experiment: Indirect calorimetry and exercise endurance under stepwise treadmill running
Assay type: in vivo, mouse
Details: for Fat oxodation, sum over interval / Gluocse oxdation, sum over interval / Fat oxodation / Gluocse oxdation: individual mice 1-7
Method: The mice were acclimatized to the treadmill by allowing them to run at 10 m min^−1 for 10 min on the day before the test. On the day of the test, the mice received oral administration of 30 mg kg^−1 of DS20060511 or vehicle 15 min before they were made to run. The treadmill was started at a velocity of 10 m min^−1, with the speed increased stepwise by 2 m min^−1 every 3 min, to assess the exercise endurance capacity as described previously. Measurements of the oxygen consumption (VO2) and exhaled carbon dioxide (VCO2) under treadmill running were conducted with the ARCO-2000 magnetic-type mass spectrometric calorimeter (ARCO System, Kashiwa, Japan) connected to the treadmill chamber (MB-2000, ARCO System). The RER was calculated as the VCO2/VO2 ratio and the substrate utilization rates were calculated using Frayn’s formula[51]: rate of glucose oxidation = 4.585VCO2 − 3.226VO2; rate of fat oxidation = 1.695VO2 − 1.701VCO2. The exercise endurance capacity under treadmill running was determined by measuring the time from the start to the time until the mice ceased to run because of exhaustion, which was defined as remaining on the shocker plate for more than 10 sec. Immediately after the exercise, the blood glucose and lactate levels were measured using Glutest Every and Lactate Pro2 (ARKRAY, Kyoto, Japan), respectively, in blood samples collected from the tail vein.

[1] = 30 mg kg−1 po vs vehicle, treadmill running
[2] = DS20060511 30 mg/kg, 2 min, individual mice 1-7, Fig. 5a, 30 mg/kg

SMILES: COc1ccc2c(C)c(C(=O)O)ccc2c1C1C2=C(CC(C)(C)CC2=O)OC2=C1C(=O)CC(C)(C)C2 [DS20060511]
- blood lactate levels after exercise (30 mg kg−1 po vs vehicle): comparable between the two groups
- exercise endurance capacity (30 mg kg−1 po vs vehicle, stepwise treadmill): comparable between the two groups
- estimated glucose oxidation [1]: significantly higher
- fat oxidation [1]: significantly lower
- respiratory exchange ratio (RER) [1]: relatively higher
- blood glucose levels after exercise (30 mg kg−1 po, after treadmill running): decreased significantly after exercise
- Fat oxodation, sum over interval (30 mg/kg, 0-10 min): 427.8 mg/min/kg and 293.6 mg/min/kg and 420.7 mg/min/kg and 305.9 mg/min/kg and 318.6 mg/min/kg and 347.3 mg/min/kg and 349.7 mg/min/kg
- Gluocse oxdation, sum over interval (30 mg/kg, 0-10 min): 257.7 mg/min/kg and 558.0 mg/min/kg and 414.2 mg/min/kg and 313.5 mg/min/kg and 385.3 mg/min/kg and 424.4 mg/min/kg and 413.9 mg/min/kg
- Fat oxodation, sum over interval (30 mg/kg, 10-20 min): 395.5 mg/min/kg and 242.6 mg/min/kg and 385.0 mg/min/kg and 272.2 mg/min/kg and 293.7 mg/min/kg and 348.5 mg/min/kg and 252.4 mg/min/kg
- Gluocse oxdation, sum over interval (30 mg/kg, 10-20 min): 391.9 mg/min/kg and 729.7 mg/min/kg and 425.7 mg/min/kg and 359.9 mg/min/kg and 949.6 mg/min/kg and 631.1 mg/min/kg and 663.2 mg/min/kg
- Fat oxodation, sum over interval (30 mg/kg, 20-30 min): 322.9 mg/min/kg and 234.0 mg/min/kg and 346.7 mg/min/kg and 272.4 mg/min/kg and 262.3 mg/min/kg and 313.5 mg/min/kg and 371.5 mg/min/kg
- Gluocse oxdation, sum over interval (30 mg/kg, 20-30 min): 572.7 mg/min/kg and 770.3 mg/min/kg and 804.1 mg/min/kg and 468.4 mg/min/kg and 807.5 mg/min/kg and 860.4 mg/min/kg and 944.3 mg/min/kg
- Fat oxodation (30 mg/kg, 2 min): 49.1 mg/min/kg and 32.5 mg/min/kg and 45.5 mg/min/kg and 29.3 mg/min/kg and 25.5 mg/min/kg and 31.7 mg/min/kg and 38.3 mg/min/kg
- Gluocse oxdation (30 mg/kg, 2 min): 22.8 mg/min/kg and 54.5 mg/min/kg and 47.8 mg/min/kg and 35.8 mg/min/kg and 26.2 mg/min/kg and 31.5 mg/min/kg and 33.5 mg/min/kg
- Fat oxodation (30 mg/kg, 3 min): 47.1 mg/min/kg and 30.9 mg/min/kg and 42.8 mg/min/kg and 30.0 mg/min/kg (2×) and 34.1 mg/min/kg and 36.3 mg/min/kg
- Gluocse oxdation (30 mg/kg, 3 min): 23.3 mg/min/kg and 55.7 mg/min/kg and 37.4 mg/min/kg and 36.0 mg/min/kg and 29.4 mg/min/kg and 34.4 mg/min/kg and 37.0 mg/min/kg
- Fat oxodation (30 mg/kg, 4 min): 45.2 mg/min/kg and 28.8 mg/min/kg and 42.6 mg/min/kg and 34.0 mg/min/kg and 60.9 mg/min/kg and 33.7 mg/min/kg and 35.2 mg/min/kg
- Gluocse oxdation (30 mg/kg, 4 min): 24.4 mg/min/kg and 56.1 mg/min/kg and 36.3 mg/min/kg and 34.1 mg/min/kg and 30.0 mg/min/kg and 35.7 mg/min/kg and 43.6 mg/min/kg
- Fat oxodation (30 mg/kg, 5 min): 42.0 mg/min/kg (2×) and 29.8 mg/min/kg and 30.0 mg/min/kg and 28.6 mg/min/kg and 36.6 mg/min/kg and 31.5 mg/min/kg
- Gluocse oxdation (30 mg/kg, 5 min): 25.9 mg/min/kg and 58.5 mg/min/kg and 35.2 mg/min/kg and 29.7 mg/min/kg and 36.7 mg/min/kg and 43.4 mg/min/kg and 40.9 mg/min/kg
- Fat oxodation (30 mg/kg, 6 min): 40.6 mg/min/kg and 28.1 mg/min/kg (2×) and 39.9 mg/min/kg and 29.8 mg/min/kg and 36.7 mg/min/kg and 34.9 mg/min/kg
- Gluocse oxdation (30 mg/kg, 6 min): 27.6 mg/min/kg and 62.3 mg/min/kg and 41.7 mg/min/kg and 27.0 mg/min/kg and 29.5 mg/min/kg and 41.2 mg/min/kg and 41.6 mg/min/kg
- Fat oxodation (30 mg/kg, 7 min): 44.6 mg/min/kg and 27.7 mg/min/kg and 40.8 mg/min/kg and 31.0 mg/min/kg and 29.7 mg/min/kg and 36.4 mg/min/kg and 33.0 mg/min/kg
- Gluocse oxdation (30 mg/kg, 7 min): 25.8 mg/min/kg and 57.6 mg/min/kg and 41.7 mg/min/kg and 27.6 mg/min/kg and 31.8 mg/min/kg and 41.2 mg/min/kg and 41.5 mg/min/kg
- Fat oxodation (30 mg/kg, 8 min): 40.5 mg/min/kg and 29.5 mg/min/kg and 42.0 mg/min/kg and 36.5 mg/min/kg and 31.2 mg/min/kg and 35.1 mg/min/kg and 53.1 mg/min/kg
- Gluocse oxdation (30 mg/kg, 8 min): 25.7 mg/min/kg and 46.1 mg/min/kg and 38.7 mg/min/kg and 30.3 mg/min/kg and 43.2 mg/min/kg and 42.8 mg/min/kg and 44.9 mg/min/kg
- Fat oxodation (30 mg/kg, 9 min): 38.5 mg/min/kg (2×) and 26.8 mg/min/kg and 37.4 mg/min/kg and 31.8 mg/min/kg and 32.4 mg/min/kg and 27.0 mg/min/kg
- Gluocse oxdation (30 mg/kg, 9 min): 33.9 mg/min/kg and 53.4 mg/min/kg and 38.5 mg/min/kg and 22.6 mg/min/kg and 54.7 mg/min/kg and 55.4 mg/min/kg and 48.5 mg/min/kg
- Fat oxodation (30 mg/kg, 10 min): 34.8 mg/min/kg and 27.2 mg/min/kg and 41.0 mg/min/kg and 29.8 mg/min/kg and 30.4 mg/min/kg and 34.2 mg/min/kg and 23.3 mg/min/kg
- Gluocse oxdation (30 mg/kg, 10 min): 30.0 mg/min/kg and 56.7 mg/min/kg and 39.2 mg/min/kg and 35.9 mg/min/kg and 69.2 mg/min/kg and 58.5 mg/min/kg and 43.5 mg/min/kg
- Fat oxodation (30 mg/kg, 11 min): 31.8 mg/min/kg and 26.7 mg/min/kg and 43.5 mg/min/kg and 30.9 mg/min/kg and 23.0 mg/min/kg and 34.9 mg/min/kg and 24.3 mg/min/kg
- Gluocse oxdation (30 mg/kg, 11 min): 26.2 mg/min/kg and 54.7 mg/min/kg and 51.9 mg/min/kg and 29.4 mg/min/kg and 70.2 mg/min/kg and 68.8 mg/min/kg and 48.6 mg/min/kg
- Fat oxodation (30 mg/kg, 12 min): 38.6 mg/min/kg and 27.7 mg/min/kg and 39.9 mg/min/kg and 32.1 mg/min/kg and 28.8 mg/min/kg and 35.4 mg/min/kg and 26.2 mg/min/kg
- Gluocse oxdation (30 mg/kg, 12 min): 31.9 mg/min/kg and 64.6 mg/min/kg and 37.7 mg/min/kg and 26.9 mg/min/kg and 70.4 mg/min/kg and 57.6 mg/min/kg and 47.4 mg/min/kg
- Fat oxodation (30 mg/kg, 13 min): 43.1 mg/min/kg and 20.9 mg/min/kg and 41.6 mg/min/kg and 25.9 mg/min/kg and 29.8 mg/min/kg and 35.1 mg/min/kg and 26.2 mg/min/kg
- Gluocse oxdation (30 mg/kg, 13 min): 26.0 mg/min/kg and 67.8 mg/min/kg and 36.1 mg/min/kg and 27.0 mg/min/kg and 75.8 mg/min/kg and 55.4 mg/min/kg and 71.1 mg/min/kg
- Fat oxodation (30 mg/kg, 14 min): 40.8 mg/min/kg and 24.1 mg/min/kg and 37.9 mg/min/kg and 28.8 mg/min/kg and 31.7 mg/min/kg and 36.1 mg/min/kg and 24.4 mg/min/kg
- Gluocse oxdation (30 mg/kg, 14 min): 35.1 mg/min/kg and 58.5 mg/min/kg and 33.2 mg/min/kg and 25.3 mg/min/kg and 81.8 mg/min/kg and 57.9 mg/min/kg and 62.6 mg/min/kg
- Fat oxodation (30 mg/kg, 15 min): 37.9 mg/min/kg and 23.3 mg/min/kg and 38.6 mg/min/kg and 27.4 mg/min/kg and 30.7 mg/min/kg and 40.7 mg/min/kg and 24.3 mg/min/kg
- Gluocse oxdation (30 mg/kg, 15 min): 36.9 mg/min/kg and 60.6 mg/min/kg and 34.7 mg/min/kg and 16.1 mg/min/kg and 95.7 mg/min/kg and 52.2 mg/min/kg and 66.3 mg/min/kg
- Fat oxodation (30 mg/kg, 16 min): 43.4 mg/min/kg and 24.7 mg/min/kg
- Gluocse oxdation (30 mg/kg, 16 min): 35.4 mg/min/kg and 77.5 mg/min/kg
- CO2 Production (VCO2) [2]: 92.8 mL/min/kg and 70.8 mL/min/kg and 81.2 mL/min/kg and 81.9 mL/min/kg and 71.5 mL/min/kg and 71.3 mL/min/kg and 73.6 mL/min/kg
- O2 Consumption (VO2) [2]: 108.3 ml/min/kg and 99.5 ml/min/kg and 86.9 ml/min/kg and 90.3 ml/min/kg (2×) and 96.4 ml/min/kg and 122.1 ml/min/kg
